System: individuals with performance anxiety
Assay: trials using the composition: anxiety and speech fluency
Assay type: in vivo
Conditions: as component of the composition of the invention

For `NCCCC[C@H](N)C(=O)O` [L-Lysine], the “effect on anxiety amelioration” value was “positive effect”.
